Data as given in patent US20250122211A1, “NITROGEN-CONTAINING TETRACYCLIC COMPOUND, PREPARATION METHOD THEREFOR, AND MEDICAL USE THEREOF” (Jiangsu Hengrui Pharmaceuticals Co., Ltd., priority 2021, published 2025).
Where two headings read alike, the source gives them in different places.

How the values were obtained:
Type in all cases: cell-based
MIA PaCa-2 cells = assay: MIA PaCa-2 cell proliferation assay (CellTiter-Glo); conditions: 72 h incubation, read-out: IC50 (nM), inhibitory activity against MIA PaCa-2 cell proliferation
Description: The inhibitory activity of the compounds of the present disclosure against MIA PaCa-2 cell proliferation was measured. Below is a brief description of the experimental method:
MIA PaCa-2 cells (ATCC, CRL-1420) were cultured in DMEM/HIGH GLUCOSE medium (GE, SH30243.01) containing 10% fetal bovine serum (Corning, 35-076-CV) and 2.5% horse serum (Beyotime Biological Tech., C0262) (i.e., complete medium). On the first day of the experiment, MIA PaCa-2 cells were seeded into a 96-well plate at a density of 500 cells/well using complete medium, with 90 µL of cell suspension per well, and the plate was incubated overnight in a 37° C., 5% CO2 cell incubator. On the second day, the test compounds, prepared in complete medium and serially diluted, were added at 10 μL/well. The final concentrations of the compounds were 9 concentration points obtained by a 5-fold serial dilution from 10 μM. A blank control containing 0.5% DMSO was set up. The plate was incubated for 72 h in a 37° C., 5% CO2 cell incubator. On the fifth day, the 96-well cell plate was removed from the incubator, and CellTiter-Glo® Luminescent Cell Viability Assay (Promega, G7573) was added at 50 μL/well. After 10 min of room temperature incubation, luminescence signals were measured using a multifunctional microplate reader (PerkinElmer, EnVision2015). The IC50 values for the inhibitory activity of the compounds were calculated using Graphpad Prism software.

H358 cells = assay: H358 proliferation assay (CellTiter-Glo); conditions: 120 h incubation, read-out: IC50 (nM), inhibitory activity against H358 cell proliferation
Description: The inhibitory activity of the compounds of the present disclosure against H358 cell proliferation was measured. Below is a brief description of the experimental method: H358 cells (ATCC, CRL-5807) were cultured in RPMI1640 medium (Hyclone, SH30809.01) containing 10% fetal bovine serum (Corning, 35-076-CV) (i.e., complete medium). On the first day of the experiment, H358 cells were seeded into a 96-well plate at a density of 1200 cells/well using complete medium, with 100 μL of cell suspension per well, and the plate was incubated overnight in a 37° C., 5% CO2 cell incubator. On the second day, the test compounds, prepared in complete medium and serially diluted, were added at 10 μL/well. The final concentrations of the compounds were 9 concentration points obtained by a 5-fold serial dilution from 10 μM. A blank control containing 0.5% DMSO was set up. The plate was incubated for 120 h in a 37° C., 5% CO2 cell incubator. On the seventh day, the 96-well cell plate was removed from the incubator, and CellTiter-Glo® Luminescent Cell Viability Assay (Promega, G7573) was added at 50 μL/well. After 10 min of room temperature incubation, luminescence signals were measured using a multifunctional microplate reader (PerkinElmer, EnVision® 2105). The IC50 values for the inhibitory activity of the compounds were calculated using Graphpad Prism software.

[1] = system: ERK phosphorylation in H358 cells; assay: H358 cell ERK phosphorylation inhibition assay (HTRF pERK/total ERK); conditions: 3 h incubation, ratio of pERK/total ERK, read-out: IC50 (nM), inhibitory effects on ERK phosphorylation in H358 cells
Description: The inhibitory effects of the compounds of the present disclosure on ERK phosphorylation in H358 cells were measured. Below is a brief description of the experimental method: H358 cells (ATCC, CRL-5807) were cultured in RPMI1640 medium (Hyclone, SH30809.01) containing 10% fetal bovine serum (Corning, 35-076-CV) (i.e., complete medium). On the first day of the experiment, H358 cells were seeded into a 96-well plate at a density of 25,000 cells/well using complete medium, with 190 μL of cell suspension per well, and the plate was incubated overnight in a 37° C., 5% CO2 cell incubator. On the second day, the test compounds, prepared in complete medium and serially diluted, were added at 10 μL/well. The final concentrations of the compounds were 9 concentration points obtained by a 6-fold serial dilution from 10 μM. A blank control containing 0.5% DMSO was set up. The plate was incubated for 3 h in a 37° C., 5% CO2 cell incubator. After 3 h, the 96-well cell culture plate was removed from the incubator, and the culture medium was pipetted off. PBS (Shanghai BasalMedia Technologies Co., Ltd., B320) was added at 200 μL/well for a single wash. PBS was pipetted off, and lysis buffer (Cisbio, 64KL1FDF) containing a blocking agent (Cisbio, 64KB1AAC) was added at 50 μL/well. The plate was incubated on a shaker for 30 min at room temperature to lyse the cells. After lysis, the lysates were well mixed by pipetting, and 16 μL of lysate was transferred from each well to two HTRF 96-well assay plates (Cisbio, 66PL96100). Subsequently, 4 μL of a premixed phospho-ERK1/2 antibody solution (Cisbio, 64AERPEG) or 4 μL of a premixed total-ERK1/2 antibody solution (Cisbio, 64NRKPEG) was added to each of the plates. The plates were sealed with a plate sealer film, centrifuged for 1 min in a microplate centrifuge, and incubated overnight at room temperature in the dark. On the third day, fluorescence values at an excitation wavelength of 337 nm and emission wavelengths of 665 nm and 620 nm were measured using a PHERAstar multifunctional microplate reader (BMG Labtech, PHERAstar FS). The IC50 values for the inhibitory activity of the compounds were calculated using Graphpad Prism software, based on the compound concentration and the ratio of pERK/total ERK.

`C=CC(=O)N1CCN2C(=O)c3cc(F)c(-c4ccc(F)c5sc(N)c(C#N)c45)c4cnn(c34)CC[C@H]2C1` (atropisomer, axis not shown) [Example 1-P1, (R)-4-((S)-10-Acryloyl-2-fluoro-14-oxo-8,8a,9,10,11,12-hexahydro-7H,14H-pyrazino[1′,2′:5,6][1,5]diazocino[3,2,1-hi]indazol-3-yl)-2-amino-7-fluorobenzo[b]thiophene-3-carbonitrile] showed an IC50 (MIA PaCa-2 cells) of 2.79 nM, an IC50 (H358 cells) of 12 nM and an IC50 [1] of 1.33 nM.
Work on `C=CC(=O)N1CCN2C(=O)c3cc(F)c(-c4ccc(F)c5sc(N)c(C#N)c45)c4cnn(c34)CC[C@H]2C1` (atropisomer, axis not shown) [Example 1-P2, (S)-4-((S)-10-Acryloyl-2-fluoro-14-oxo-8,8a,9,10,11,12-hexahydro-7H,14H-pyrazino[1′,2′:5,6][1,5]diazocino[3,2,1-hi]indazol-3-yl)-2-amino-7-fluorobenzo[b]thiophene-3-carbonitrile] yielded an IC50 (MIA PaCa-2 cells) of 0.4 nM, an IC50 (H358 cells) of 0.93 nM and an IC50 [1] of 0.07 nM.
For `C=C(F)C(=O)N1CCN2C(=O)c3cc(F)c(-c4ccc(F)c5sc(N)c(C#N)c45)c4cnn(c34)CC[C@H]2C1` (atropisomer, axis not shown) [Example 6-P1, (R)-2-Amino-7-fluoro-4-((S)-2-fluoro-10-(2-fluoroacryloyl)-14-oxo-8,8a,9,10,11,12-hexahydro-7H,14H-pyrazino[1′,2′:5,6][1,5]diazocino[3,2,1-hi]indazol-3-yl)benzo[b]thiophene-3-carbonitrile], the IC50 (MIA PaCa-2 cells) was 13.9 nM, the IC50 (H358 cells) was 9.75 nM and the IC50 [1] was 1.45 nM.
With `C=C(F)C(=O)N1CCN2C(=O)c3cc(F)c(-c4ccc(F)c5sc(N)c(C#N)c45)c4cnn(c34)CC[C@H]2C1` (atropisomer, axis not shown) [Example 6-P2, (S)-2-Amino-7-fluoro-4-((S)-2-fluoro-10-(2-fluoroacryloyl)-14-oxo-8,8a,9,10,11,12-hexahydro-7H,14H-pyrazino[1′,2′:5,6][1,5]diazocino[3,2,1-hi]indazol-3-yl)benzo[b]thiophene-3-carbonitrile] the IC50 (MIA PaCa-2 cells) was 5.39 nM, the IC50 (H358 cells; Homo sapiens, NCI-H358, 120 h) was 5.73 nM and the IC50 [1] was 0.35 nM.
Molecule `C=CC(=O)N1CCN2C(=O)c3cc(F)c(-c4ccc(F)c5sc(N)c(C#N)c45)c4c(Cl)nn(c34)CC[C@H]2C1` (atropisomer, axis not shown) [Example 7-P2, (S)-4-((S)-10-Acryloyl-4-chloro-2-fluoro-14-oxo-8,8a,9,10,11,12-hexahydro-7H,14H-pyrazino[1′,2′:5,6][1,5]diazocino[3,2,1-hi]indazol-3-yl)-2-amino-7-fluorobenzo[b]thiophene-3-carbonitrile] has an IC50 (MIA PaCa-2 cells; Homo sapiens, MIA PaCa-2, 72 h) of 0.28 nM, an IC50 (H358 cells; Homo sapiens, NCI-H358, 120 h) of 0.74 nM and an IC50 ([1]; Homo sapiens, NCI-H358, 3 h) of 0.13 nM.
`C=CC(=O)N1CCN2C(=O)c3cc(F)c(-c4ccc(F)c5sc(N)c(C#N)c45)c4c(F)nn(c34)CC[C@H]2C1` (atropisomer, axis not shown) [Example 8-P2, (S)-4-((S)-10-Acryloyl-2,4-difluoro-14-oxo-8,8a,9,10,11,12-hexahydro-7H,14H-pyrazino[1′,2′:5][1,5]diazocino[3,2,1-hi]indazol-3-yl)-2-amino-7-fluorobenzo[b]thiophene-3-carbonitrile] showed an IC50 (MIA PaCa-2 cells; Homo sapiens, MIA PaCa-2, 72 h) of 0.19 nM, an IC50 (H358 cells; Homo sapiens, NCI-H358, 120 h) of 0.84 nM and an IC50 ([1]; Homo sapiens, NCI-H358, 3 h) of 0.16 nM.
In the case of `C=CC(=O)N1CCN2C(=O)c3cc(F)c(-c4ccc(F)c5sc(N)c(C#N)c45)c4c(C)nn(c34)CC[C@H]2C1` (atropisomer, axis not shown) [Example 9-P1, (R)-4-((S)-10-Acryloyl-2-fluoro-4-methyl-14-oxo-8,8a,9,10,11,12-hexahydro-7H,14H-pyrazino[1′,2′:5,6][1,5]diazocino[3,2,1-hi]indazol-3-yl)-2-amino-7-fluorobenzo[b]thiophene-3-carbonitrile], the IC50 [1] is reported as 32.5 nM.
For `C=CC(=O)N1CCN2C(=O)c3cc(F)c(-c4ccc(F)c5sc(N)c(C#N)c45)c4c(C)nn(c34)CC[C@H]2C1` (atropisomer, axis not shown) [Example 9-P2, (S)-4-((S)-10-Acryloyl-2-fluoro-4-methyl-14-oxo-8,8a,9,10,11,12-hexahydro-7H,14H-pyrazino[1′,2′:5,6][1,5]diazocino[3,2,1-hi]indazol-3-yl)-2-amino-7-fluorobenzo[b]thiophene-3-carbonitrile], the IC50 (MIA PaCa-2 cells; Homo sapiens, MIA PaCa-2, 72 h) was 0.37 nM, the IC50 (H358 cells; Homo sapiens, NCI-H358, 120 h) was 0.52 nM and the IC50 [1] was 0.06 nM.
`C=CC(=O)N1CCN2C(=O)c3cc(F)c(-c4ccc(F)c5sc(N)c(C#N)c45)c4cnn(c34)CC[C@@H]2C1` (atropisomer, axis not shown) [Example 12-P2, (S)-4-((R)-10-Acryloyl-2-fluoro-14-oxo-8,8a,9,10,11,12-hexahydro-7H,14H-pyrazino[1′,2′:5,6][1,5]diazocino[3,2,1-hi]indazol-3-yl)-2-amino-7-fluorobenzo[b]thiophene-3-carbonitrile] showed an IC50 (MIA PaCa-2 cells; Homo sapiens, MIA PaCa-2, 72 h) of 35.3 nM and an IC50 ([1]; Homo sapiens, NCI-H358, 3 h) of 11.3 nM.
`C=CC(=O)N1CCN2C(=O)c3cc(F)c(-c4ccc(F)c5sc(N)nc45)c4ccn(c34)CC[C@H]2C1` [Example 3, (8aS)-10-Acryloyl-3-(-2-amino-7-fluorobenzo[d]thiazol-4-yl)-2-fluoro-8,8a,9,10,11,12-hexahydro-7H,14H-pyrazino[1′,2′:5,6][1,5]diazocino[3,2,1-hi]indol-14-one] was tested, and the IC50 ([1]; Homo sapiens, NCI-H358, 3 h) was 23.7 nM.
`C=C(F)C(=O)N1CCN2C(=O)c3cc(F)c(-c4ccc(F)c5sc(N)c(C#N)c45)c4ccn(c34)CC[C@H]2C1` [Example 5, 2-Amino-7-fluoro-4-((S)-2-fluoro-10-(2-fluoroacryloyl)-14-oxo-8,8a,9,10,11,12-hexahydro-7H,14H-pyrazino[1′,2′:5,6][1,5]diazocino[3,2,1-hi]indol-3-yl)benzo[b]thiophene-3-carbonitrile] was tested, and the IC50 ([1]; Homo sapiens, NCI-H358, 3 h) was 36.2 nM.
Molecule `C=CC(=O)N1CCN2C(=O)c3cc(F)c(-c4ccc(F)c5sc(N)c(C#N)c45)c4cnn(c34)C[C@H]2C1` [Example 14, 4-((R)-10-Acryloyl-4-fluoro-6-oxo-8,9,10,11,11a,12-hexahydro-6H-pyrazino[2′,1′:3,4][1,4]diazepino[6,7,1-hi]indazol-3-yl)-2-amino-7-fluorobenzo[b]thiophene-3-carbonitrile] has an IC50 (MIA PaCa-2 cells; Homo sapiens, MIA PaCa-2, 72 h) of 39.6 nM and an IC50 ([1]; Homo sapiens, NCI-H358, 3 h) of 1.35 nM.
